The record followed here is paper PMC5266331, “Novel PARP-1 Inhibitor Scaffolds Disclosed by a Dynamic Structure-Based Pharmacophore Approach” (PLoS ONE, 2017).

One may read the IC50 as the point on the concentration scale where inhibition reaches its midpoint.

In this test the target is T1, PARP-1 (Homo sapiens, UniProt P09874).
T1 construct: gene PARP1
In words: HT Universal Colorimetric PARP Assay kit (histone-coated wells, biotinylated poly(ADP-ribose)). Format: biochemical.

T1 sequence (P09874 2-1014): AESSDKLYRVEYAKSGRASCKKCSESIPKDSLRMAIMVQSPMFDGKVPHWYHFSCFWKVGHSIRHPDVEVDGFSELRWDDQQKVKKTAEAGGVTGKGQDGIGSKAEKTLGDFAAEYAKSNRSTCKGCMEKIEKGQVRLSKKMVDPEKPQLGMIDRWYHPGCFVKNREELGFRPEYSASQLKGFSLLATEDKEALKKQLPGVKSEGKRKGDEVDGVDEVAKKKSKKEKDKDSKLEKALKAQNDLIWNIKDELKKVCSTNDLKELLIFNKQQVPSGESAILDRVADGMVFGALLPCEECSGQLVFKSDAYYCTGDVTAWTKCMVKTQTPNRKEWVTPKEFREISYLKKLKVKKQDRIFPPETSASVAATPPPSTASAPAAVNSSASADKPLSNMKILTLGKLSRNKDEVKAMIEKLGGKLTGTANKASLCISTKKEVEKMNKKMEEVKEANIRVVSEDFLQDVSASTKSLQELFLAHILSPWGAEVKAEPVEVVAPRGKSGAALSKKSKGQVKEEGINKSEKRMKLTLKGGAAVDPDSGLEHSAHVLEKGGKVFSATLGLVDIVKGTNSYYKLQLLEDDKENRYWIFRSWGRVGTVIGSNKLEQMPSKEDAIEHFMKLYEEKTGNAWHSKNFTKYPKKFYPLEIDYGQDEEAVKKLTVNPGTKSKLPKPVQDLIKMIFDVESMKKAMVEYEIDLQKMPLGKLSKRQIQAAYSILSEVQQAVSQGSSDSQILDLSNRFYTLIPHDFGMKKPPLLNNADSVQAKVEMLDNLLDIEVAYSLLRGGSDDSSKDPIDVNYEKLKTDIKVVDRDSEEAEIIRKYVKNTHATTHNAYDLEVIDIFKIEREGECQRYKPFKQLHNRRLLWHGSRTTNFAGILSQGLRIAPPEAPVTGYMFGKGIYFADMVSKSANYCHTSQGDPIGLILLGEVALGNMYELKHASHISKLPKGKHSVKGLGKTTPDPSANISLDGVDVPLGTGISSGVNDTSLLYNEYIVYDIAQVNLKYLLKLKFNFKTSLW

`COc1ccc2c(c1O)CNCC2c1ccc(O)c(O)c1` (stereo not shown) [NSC131753] yielded an IC50 of 240 nM.
